Source: US5112808A, “Alkylated hormone-releasing peptides and method of treatig mammals therewith” (American Cyanamid Company, priority 1988, dated 1992)
Where no end group is shown, it is not given here.

Key:
growth hormone release = test: Peptide effects on growth hormone release in the pentobarbital-anesthetized rat (plasma GH by RIA); format: in vivo
Method: In this evaluation, the procedures described by W. A. Murphy et al., Endocrinology 109: 491-495 (1980), were employed.
In growth hormone (GH) experiments, male rats (Charles Rivers) were anesthetized with NEMBUTAL® (6 mg per 100 g body weight) which also served to maintain stimulated plasma GH levels. Exactly 30 minutes after the rats were anesthetized, 0.5 mL of saline or the test peptide in saline was administered as a SC bolus. A 1 mL blood sample was drawn from the jugular vein 15 minutes after the injection of the peptide in saline or at the indicated times in the time course assay (p26). GH levels were determined using NIADDKD rat GH RIA components.

plasma growth hormone = test: Evaluation of peptides in vivo in sheep: plasma GH levels in lambs injected intravenously at 100 ng/kg; settings: for Plasma GH Peak / Plasma GH Post-inj Mean: 100 ng/kg IV; for Plasma GH Peak: control 12.2; for Plasma GH Post-inj Mean: two hours after treatment, means of 8 samples/animal from 8 animals, control 8.7; for Plasma GH Pre-inj Mean: before IV injection of 100 ng/kg, means of 5 samples/animal from 8 animals, control 8.4
Method: The purpose of this experiment is to compare the GH releasing activities of several GRF analogs selected for expected high potency and the lack of either a terminal amide or a D-amino acid. The analogs to be compared in wether lambs at 100 ng/kg (IV) are tri-isopropyl-GRF(1-29)-NH2, tri-isopropyl-GRF(1-29)-OH, tri-isopropyl-GRF(1-40)OH, D-ala^2, arg^12,21 -GRF (1-29)-OH, D-ala^2, arg^12,21 -GRF(1-29)-NH2, GRF(1-40)-OH and GRF(1-29)-NH2
A balanced 8×8 Latin square design will be used to test the following 8 treatments:
Sheep are maintained in individual metabolism cages at all times. Each sheep has previously received an indwelling jugular cannula which is flushed daily with heparinized (400-800 IU/ml) sterile saline to help maintain […].
All compounds are solubilized at 5 ug/ml in sterile saline containing 1% Tween 80 and injected intravenously at 100 ng/kg. Control lambs receive equal volumes of the vehicle only. The drugs are prepared each day just prior to injection to minimize sticking to the vials.
Blood is collected in heparinized tubes at 15 minute intervals for one hour prior to and for two hours after the treatments are administered. Plasma samples are removed by centrifugation and frozen.
Blood samples are taken from each animal at 15 minute intervals for 3 hours each day during the 8 day trial period. The samples are analyzed for plasma growth hormone (ng/ml). Data obtained are reported below as near values obtained for each treatment.

CC[C@H](C)[C@H](NC(=O)[C@H](C)NC(=O)[C@H](CC(=O)O)NC(=O)[C@H](C)NC(=O)[C@H](Cc1ccc(O)cc1)NC)C(=O)N[C@@H](Cc1ccccc1)C(=O)N[C@H](C(=O)N[C@@H](CC(N)=O)C(=O)N[C@@H](CO)C(=O)N[C@@H](Cc1ccc(O)cc1)C(=O)N[C@@H](CCCNC(=N)N)C(=O)N[C@@H](CCCCN)C(=O)N[C@H](C(=O)N[C@@H](CC(C)C)C(=O)NCC(=O)N[C@@H](CCC(N)=O)C(=O)N[C@@H](CC(C)C)C(=O)N[C@@H](CO)C(=O)N[C@@H](C)C(=O)N[C@@H](CCCNC(=N)N)C(=O)N[C@@H](CCCCN)C(=O)N[C@@H](CC(C)C)C(=O)N[C@@H](CC(C)C)C(=O)N[C@@H](CCC(N)=O)C(=O)N[C@@H](CC(=O)O)C(=O)N[C@H](C(=O)N[C@@H](CCSC)C(=O)N[C@@H](CO)C(=O)N[C@@H](CCCNC(=N)N)C(N)=O)[C@@H](C)CC)C(C)C)[C@@H](C)O [N^α MeTry^1, [N α-MeTyr^1]hpGRF(1-29)-NH2, reference compound]
PLASMA GH (growth hormone release; dose 30 ug/100 g BW SC, blood 15 min after injection, saline control 243 ± 25): 1843 ± 196 ng/mL
PLASMA GH (growth hormone release; dose 75 ug/100 g BW SC, blood 15 min after injection, saline control 243 ± 25): 2613 ± 418 ng/mL
POTENCY (growth hormone release; relative to GRF(1-29)NH2 (=1) as standard, by 4point assay (95% CI limits in parentheses)): 0.42

GRF(1-40)-OH (YADAIFTNSYRKVLGQLSARKLLQDIMSRQQGESNQERGA-OH; UniProt P01286 32-71, looked up, fragment) [unalkylated human GRF(1-40) free acid, comparator in the sheep test, reference compound]
Plasma GH Peak (plasma growth hormone): 92.3 ng/mL
Plasma GH Post-inj Mean (plasma growth hormone): 25.5 ng/mL
Plasma GH Pre-inj Mean (plasma growth hormone): 9.4 ng/mL

[N ^α -Isopropyl-Tyr^1, N ^ε -isopropyl-Lys^12,21 ]GRF(1-40)OH [tri-isopropyl-GRF(1-40)-OH]
Plasma GH Peak (plasma growth hormone): 108.6 ng/mL
Plasma GH Post-inj Mean (plasma growth hormone): 34.0 ng/mL
Plasma GH Pre-inj Mean (plasma growth hormone): 9.5 ng/mL

[N^α -Isopropyl-Tyr^1 ]GRF(1-29)NH2 [N^α iPrTyr^1]
PLASMA GH (growth hormone release; dose 0.2 ug/100 g BW SC, 15 min, saline control 325 ± 52): 1334 ± 394 ng/mL
PLASMA GH (growth hormone release; dose 2 ug/100 g BW SC, 15 min, saline control 325 ± 52): 3250 ± 362 ng/mL
PLASMA GH (growth hormone release; dose 20 ug/100 g BW SC, 15 min, saline control 325 ± 52): 3290 ± 241 ng/mL
POTENCY (growth hormone release; relative to GRF(1-29)NH2 (=1), estimated by single dose comparisons to pooled standard responses): ~ 60
